Values quoted from earlier work, collected in US20060142288A1, “Combinations and methods for headaches” (priority 2004, published 2006).

Assays:
canine COX-3 = target: T1, canine COX-3 (Canis lupus familiaris, UniProt Q8HZR1); conditions: canine COX-3 compared with murine COX-1 and COX-2
T1 sequence (Q8HZR1 1-633 isoform Q8HZR1-2): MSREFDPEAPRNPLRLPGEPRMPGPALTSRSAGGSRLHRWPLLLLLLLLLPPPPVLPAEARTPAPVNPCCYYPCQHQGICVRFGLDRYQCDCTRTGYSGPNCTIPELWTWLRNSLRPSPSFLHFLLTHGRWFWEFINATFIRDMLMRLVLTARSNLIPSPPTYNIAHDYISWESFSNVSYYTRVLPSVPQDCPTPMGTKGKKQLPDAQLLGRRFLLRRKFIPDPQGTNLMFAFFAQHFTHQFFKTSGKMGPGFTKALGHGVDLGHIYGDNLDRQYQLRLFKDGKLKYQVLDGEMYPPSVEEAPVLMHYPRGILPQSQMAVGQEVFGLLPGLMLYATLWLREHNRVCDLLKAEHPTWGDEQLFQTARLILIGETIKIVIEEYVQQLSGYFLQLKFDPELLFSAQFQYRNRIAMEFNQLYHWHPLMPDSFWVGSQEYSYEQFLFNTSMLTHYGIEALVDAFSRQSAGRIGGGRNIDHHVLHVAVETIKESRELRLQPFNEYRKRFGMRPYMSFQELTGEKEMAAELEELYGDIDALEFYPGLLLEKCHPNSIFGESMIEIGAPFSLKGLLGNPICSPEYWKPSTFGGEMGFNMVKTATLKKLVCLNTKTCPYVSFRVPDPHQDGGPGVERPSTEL

[1] = 500 mg daily, six year trial
[2] = 650 mg/day, migraine patients
[3] = 13.5 mg/kg/day or ~1 g per day
[4] = ASA 500 mg TID, metoprolol in the same study

CCOc1ccc(NC(C)=O)cc1 [phenacetin]
selective inhibition of COX-3 (canine COX-3): selectively inhibit

Cc1cc(=O)n(-c2ccccc2)n1C [antipyrine]
selective inhibition of COX-3 (canine COX-3): selectively inhibit

CC(=O)Oc1ccccc1C(=O)O [ASA, acetylsalicyclic acid]
reduction of the incidence of migraine [1]: 30% | patients with a reduction of more than 50% in headache frequency [2]: 9 of 12 | overall migraine frequency (500 mg TID, p<0.001): reduced significantly | subjects with a reduction of attacks >50% (number of subjects) [4]: 3 of 22 | subjects with a reduction of attacks >50% (percent of subjects) [4]: 14% | frequency, severity and duration of migraine attacks [3]: significantly decrease

CC(=O)Nc1ccc(O)cc1 [acetaminophen]
selective inhibition of COX-3 (canine COX-3): selectively inhibit

Cc1c(N(C)CS(=O)(=O)[O-])c(=O)n(-c2ccccc2)n1C.[Na+] [dipyrone]
selective inhibition of COX-3 (canine COX-3): selectively inhibit
